For data set [1], the system named is APP/PS1 mice. The data set can be described thus: Aβ plaque staining and Aβ ELISA in brains of APP/PS1 mice. The settings on record: for amyloid plaque burdens (Aβ1‐42, Aβ1‐16 staining): prevention study, hippocampus and cortex. In kind it is in vivo. On the procedure:
(§1) APP/PS1 transgenic mice were purchased from Jackson Laboratory and reproduced in the Shenzhen Center for Disease Control and Prevention (Shenzhen, China). Two‐month‐old APP/PS1 mice were divided into four groups: (1) APP/PS1 + Vehicle group; (2) APP/PS1 + MN‐08 (6 mg/kg) group; (3) APP/PS1 + Memantine (Mem, 5 mg/kg) group; (4) APP/PS1 + Donepezil (Done, 1.3 mg/kg, once daily) group; (5) Two‐month‐old C57BL/6J mice as a control group. The APP/PS1 mice were administered drugs twice a day (Done, once daily) by gastric gavage from ages 2 to 8 months for 6 months successively. Control and vehicle groups received equal volumes of saline.
To evaluate the concentration of soluble and insoluble Aβ in AD mice, the hippocampus and cortex were homogenized in the lysate, which was then centrifuged at 12000 g for 30 min at 4°C. Supernatant samples were collected as soluble Aβ. Sediment of the cortex and hippocampus was resuspended with formic acid, incubated on ice for 60 min and then centrifuged at 12,000 g for 30 min at 4°C. The supernatant and Tris/NaH2PO4 buffer were mixed as insoluble Aβ. The concentration of Aβ was analyzed by ELISA kit of human amyloid β (R&D Systems, Minneapolis, MN, USA) following the manufacturer’s instructions.
Immunohistochemistry and immunofluorescence staining were carried out as previously described (Zhang et al., 2017). Coronal brain sections were incubated with […] sodium citrate (pH 6.0) and heated for 15 min. After cooling to room temperature, the sections were immersed in 3 % H2O2 for 10 min followed by blocking solution (10 % fetal bovine serum, 1 % bovine serum albumin and 0.1 % Triton X-100) for 1 h. Sections were then incubated with the following appropriate primary antibodies overnight at 4°C: anti-Aβ1-42 antibody (#ab10148, 1:1000, Abcam), anti-Aβ1-16 antibody (#803014, 1:1000, Abcam) and anti-NeuN antibody (#ab177487, 1:400, Abcam). After rinsing 3 times, the sections of immunohistochemistry staining were incubated with biotin-conjugated universal secondary antibody (Gene Tech, Shanghai, China). For immunofluorescence staining, the sections were incubated with appropriate secondary antibodies for 2 h at room temperature. Image J software was used to analyze the fluorescence intensity and cell counting from six slices at similar coronal positions of each animal; this was performed by a viewer blinded to the experimental group.

The nature of data set [2]: pharmacokinetic analysis of MN-08 in rats. The class given is in vivo. The settings on record: both sexes, rat, plasma, po; for Cmax: read-out: Cmax, peak concentration; for half-life: read-out: T1/2, mean terminal half-life (converted); for Tmax: read-out: Tmax, mean time to peak. On the procedure: Healthy adult rats were cannulated under anesthesia one day before dosing, then randomly categorized into 3 groups (3 males and 3 females for each group): (1) MN-08 (3 mg/kg) group; (2) MN-08 (12 mg/kg) group; (3) MN-08 (24 mg/kg) group. Following single administration of MN-08 by gastric gavage, plasma samples (approximately 150 μL) were collected at different time points (Pre-dose and 0.25, 0.5, 1, 2, 4, 8, 12, 24 h after dose). The blood samples were placed in heparinized tubes and centrifuged at 3000 rpm for 10 min. The supernatant plasma was stored at -80°C until analysis. The concentration of MN-08 in blood samples was analyzed by the LC-MS/MS method as previously described (Tian et al., 2016).

The test system of data set [3] is APP/PS1 mice. The data set can be described thus: behavioral tests (SDA, NOR, MWM), prevention study in APP/PS1 mice. In kind it is in vivo. The conditions noted are these: 6 mg/kg gastric gavage, ages 2 to 8 months. On the procedure: as §1
The step-down avoidance (SDA) test was performed as previously described (Zhou et al., 2019). During the training phase, mice were singly placed on a metal floor with electrical stimulation (35 V) for 5 min. After 24 hours, the mouse was positioned on a wooden platform, while the metal floor at the bottom delivered an electrical shock (35 V) for another 5 min. The time for the animal to step down from the wooden platform were recorded as the step-down latency to evaluate retention memory.
Hippocampus-dependent spatial memory was determined by the Morris water maze (MWM) test according to the protocol described in a previous study (Jiao et al., 2015). The MWM test includes a platform training phase and a probe trial phase. An escape platform was placed in a fixed spatial location. During the training phase, each animal was placed at one of four different starting positions and tested four times a day with an interval of approximately 30 min. The animal in the water was immediately removed when it swam to the escape platform within 60 s. […] After the training phase, the probe trial was performed on the sixth day when the platform was removed. The animal was placed in the same starting position in the pool and allowed to move freely for 2 min. The animal swimming track was recorded and analyzed with a digital camera.
The novel object recognition test was performed to assess non-spatial working memory according to previously published protocols (Choi et al., 2011). Firstly, each animal was sequentially placed into a square box (50 × 50 × 50 cm, length × width × height) without any objects for 10 min per day for 2 continuous days to habituate to the environment. Then, two identical objects were placed parallel near one wall of the square box. Animals were placed singly in the box and allowed to explore the objects for 10 min. […] The time each animal took to examine the familiar object and novel object was recorded by digital camera. The discrimination index was calculated according to the following expression: (novel object (s) - familiar object (s))/ (novel object (s) + familiar object (s)). […]

Data set [4] relates to experimental subarachnoid hemorrhage models. Further details: method as in Luo et al., 2019. The settings on record: ref Luo et al., 2019; cited from earlier work.
The test system of a further data set is intact narcotized rats. Further details: method as in Mirzoyan et al., 2014. The conditions noted are these: intact narcotized rats and animals with global transient ischemia; ref Mirzoyan et al., 2014; cited from earlier work.
Where [5] appears, read: single intragastric dose 3 mg/kg.
The mark [6] stands for this setting: single intragastric dose 12 mg/kg.
[7] abbreviates: single intragastric dose 24 mg/kg.

Read-outs that look alike come from different tables or passages of the source.

A word on the Tmax: it is the time at which the peak concentration occurs. For the molecule `CCC12CC3CC(N)(C1)CC(CO[N+](=O)[O-])(C3)C2` (stereo not shown) [MN‐08], the “amyloid plaque burdens (Aβ1‐42, Aβ1‐16 staining)” value in the data set on APP/PS1 mice [1] (MN‐08 6 mg/kg) is listed as “obviously attenuated”. In the data set on APP/PS1 mice [1] (MN‐08 6 mg/kg, hippocampal and cortical regions), the “soluble and insoluble Aβ1–42 (ELISA)” value is reported as “significantly decreased”. Also, the “levels of Aβ1–40 (ELISA)” value with APP/PS1 mice [1] (MN‐08 6 mg/kg, hippocampi and cortices) is reported as “no significant difference”. Further, in data set [2] (setting [5]), the Cmax is 97.5 ng/mL, the half-life was 5.26 h and the Tmax amounted to 1.08 h. Also, in data set [2] (setting [6]), the Cmax turned out to be 399 ng/mL, the half-life was 6.81 h and the Tmax worked out at 1.83 h. For the same molecule, in data set [2] (setting [7]), the Cmax is 674 ng/mL, the half-life was 6.82 h and the Tmax is 4 h. In addition, in the data set with APP/PS1 mice [3], the “escape latency in Morris water maze test” value is “markedly shortened” and the “number of crossings in Morris water maze test” value is “increased”. For the same molecule, in the data set on APP/PS1 mice [3] (vs vehicle), the “discrimination index in novel object recognition (NOR) test” value was “significantly increased” and the “latency in step‐down avoidance (SDA) test” value is “significantly increased”. The cerebral blood flow entry in data set [4] was “increase”.

As for `CC12CC3CC(C)(C1)CC(N)(C3)C2` [memantine, 1‐amino‐3,5‐dimethyladamantane], the “local cerebral blood flow (CBF) in the brain cortices” value in the data set on intact narcotized rats was “reduce”. Also, the “amyloid plaque burdens (Aβ1‐42, Aβ1‐16 staining)” value with APP/PS1 mice [1] (memantine 5 mg/kg) is listed as “obviously attenuated”.

Values taken from article PMC8208785, “Therapeutic efficacy of novel memantine nitrate MN‐08 in animal models of Alzheimer’s disease” (Aging Cell, 2021).
